# Article PMC4156518 (Cell metabolism, 2014)
# How the values were obtained:
# [1] = biological target: T1, UCP2 (murine, residues 14-309) (Mus musculus, UniProt P70406); experiment: NMR titration, chemical shift perturbation; format: binding
# T1 sequence (P70406 14-309): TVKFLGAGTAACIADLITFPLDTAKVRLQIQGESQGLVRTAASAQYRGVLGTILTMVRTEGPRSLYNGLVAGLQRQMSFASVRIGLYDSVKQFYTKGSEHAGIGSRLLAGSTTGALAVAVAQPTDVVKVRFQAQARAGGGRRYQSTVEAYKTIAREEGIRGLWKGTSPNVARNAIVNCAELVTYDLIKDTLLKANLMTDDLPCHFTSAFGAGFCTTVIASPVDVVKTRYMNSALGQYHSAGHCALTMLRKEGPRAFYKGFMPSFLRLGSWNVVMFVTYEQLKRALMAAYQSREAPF
# [2] = biological target: T1, UCP2 (murine, residues 14-309); experiment: proteoliposome ASO− flipping assay; format: biochemical; settings: read-out: % inhibition at 100 μM
SMILES,Kd [1] [µM],inhibition at 100 µM [2] [%]
CCCCCCCCCCCCCCCC(=O)O [C16-FA],600 ± 200,
Nc1nc2c(ncn2[C@@H]2O[C@H](COP(=O)(O)OP(=O)(O)O)[C@@H](O)[C@H]2O)c(=O)[nH]1 [GDP],,~95
